{"source": "paper PMC8096265", "about": "“A functional LSD1 coregulator screen reveals a novel transcriptional regulatory cascade connecting R-loop homeostasis with epigenetic regulation” (Nucleic Acids Research, 2021)", "key": {"[1]": {"test_system": "RNA:DNA hybrid structures (R-loops) in NIH/3T3 cells", "experiment": "DRIP-qPCR with S9.6 antibody, R-loops", "assay_type": "cell-based, murine", "details": "relative to DMSO, NIH/3T3, n = 3", "protocol": "Based on a detailed assessment of various DRIP protocols ([53]), DRIP was performed as described, with slight adaptations to workflow #19 ([53]). In brief, NIH/3T3 cells were harvested, washed once with 1X PBS and cross-linked in 1% formaldehyde/PBS for 10 min at room temperature. Crosslinking was quenched with 500 mM glycine for 5 min at room temperature. Cells were lysed in 300 μl of ChIP lysis buffer (50mM HEPES–KOH at pH 7.5, 140 mM NaCl, 1 mM EDTA at pH 8, 1% Triton X-100, 0.1% sodium-deoxycholate, 1% SDS) per 2 million cells for 30 min on ice and homogenized with a syringe every 10 min. Chromatin was fragmented by sonication using an EpiShear Probe Sonicator (Active Motif) for 2 × 12 cycles (20 s pulse, 30 s pause, 40% amplitude). The fragmented chromatin was supplemented with 300 mM NaCl and 50 μg of RNase A in 450 μl TE buffer (10 mM Tris–HCl pH 8, 10 mM EDTA pH 8) and incubated at 37°C for 1 h. The cross-linked D. melanogaster mononucleosomes were treated in parallel to obtain DNA for spike-in controls. To remove proteins and reverse the cross-links, the samples were treated with 15 μl of Proteinase K (20 mg/ml; Thermo Fisher Scientific) at 65°C for 16 h. […] The pellet was resuspended in 5 mM Tris–HCl, pH 8.5 and concentration was determined by NanoDrop. […]"}, "[2]": {"test_system": "rTetR-LSD1 at synP-mCherry reporter in NIH/3T3 cells", "experiment": "Flow-cytometric synP-mCherry reporter silencing by rTetR-LSD1", "assay_type": "cell-based, murine", "details": "n = 3; for effect of inhibitor on rTetR-LSD1 activity at synP (mCherry silencing): 10 μM GSK-LSD1 or 400 nM TSA, started in parallel with DOX (1 μg/ml), vs DMSO", "source_text": "The fluorescent reporter expressing mCherry from a synthetic promoter (synP), consisting of six tetO binding sites upstream of an EF1a promoter, was cloned into pMSCV vector, on which expression of mCherry was driven by the synP promoter element and coupled to Blasticidin resistance via a P2A (pMSCV-tetO-EF1a-mCherry-2A-Blasti). The rTetR-LSD1 fusion construct was cloned into a pRRL backbone by standard cloning methods. The LSD1 construct was kindly provided by Tim Somervaille. Expression was driven from an SFFV promoter and coupled to Hygromycin resistance via a P2A sequence (pRRL-rTetR-LSD1-P2A-Hygro). shRNA guides were cloned into the SGEN vector ([49]).\nNIH/3T3, Lenti-X 293T and Platinum-E retroviral packaging cell lines were cultivated in DMEM high glucose media (Sigma-Aldrich) supplemented with 10% FBS, 20 mM glutamate, 10 mM sodium pyruvate, 10 mM HEPES (pH 7.3), 100 U/ml penicillin and […] in an incubator providing 37°C and 5% CO2. For retroviral packaging of pMSCV vectors, 20 μg of plasmid were precipitated for 20 min in HBS buffer (140 mM NaCl, 25 mM HEPES, 0.75 mM Na2HPO4, pH 7.0) together with 125 mM CaCl2 and 10 μg GagPol helper plasmid. The mix was added to a 10 cm dish with Platinum-E cells growing at 75–85% confluence in supplemented DMEM. After 16 and 24 h, the media was replaced with fresh DMEM. Supernatant containing the virus was gathered 40–50 h after transfection, filtered through a 0.45 μm filter and added to the target cells at 50–70% confluence. Antibiotic selection for pMSCV-tetO-EF1a-mCherry-2A-Blasti with 10 μg/ml Blasticidin was started 2 days after transduction and kept up for 7 days. For […] packaging of pRRL-vectors, plasmids were mixed with helper plasmids pCMVR8.74 (pCMVR8.74 was a gift from Didier Trono, Addgene #22036) and pCAG-Eco (pCAG-Eco was a gift from Arthur Nienhuis & Patrick Salmon, Addgene #35617) and 3× (w/w) excess of polyethyleneimine 25K in serum free DMEM. […] Expression of GFP and mCherry was analysed every 1–3 days using a MACSQuant Vyb flow cytometer."}, "[3]": {"test_system": "rTetR-LSD1 silencing of synP-mCherry in NIH/3T3 cells", "experiment": "ChECS pooled shRNA screen, primary sequencing data", "assay_type": "cell-based, murine", "details": "14 days DOX; for sequencing reads neg2 / sequencing reads neg3 / sequencing reads neg4 / sequencing reads neg5: mCherry-negative sorted population; for sequencing reads neg2 / sequencing reads pos2: replicate 2; for sequencing reads neg3 / sequencing reads pos3: replicate 3; for sequencing reads neg4 / sequencing reads pos4: replicate 4; for sequencing reads neg5 / sequencing reads pos5: replicate 5; for sequencing reads pos1 / sequencing reads pos2 / sequencing reads pos3 / sequencing reads pos4 / sequencing reads pos5: mCherry-positive sorted population; for sequencing reads pos1: replicate 1", "source_text": "After spiking in control shRNAs at equimolar amounts, the shRNA-mirE library (5451 shRNAs and 8 control shRNAs) targeting 1010 chromatin-associated murine genes was transduced into NIH/3T3 cells expressing the synP-mCherry reporter and rTetR-LSD1. To ensure library representation, a total of 30 million cells were infected with 10% transduction efficiency using conditions that predominantly lead to a single retroviral integration and represent each shRNA in a calculated number of >500 cells. Cells were split into replicates and selected with 2.5 mg/ml Neomycin for 7 days before starting treatment with 1 μg/ml doxycycline. Throughout selection >3 × 10^6 cells per replicate were maintained at each passage to preserve library representation. After 14 days of DOX treatment, cells were sorted into mCherry-positive (top 6–8%, minimum of 5 × 10^5 cells) and mCherry-negative (lowest 75–80%, minimum of 6 × 10^6 cells, see Supplementary Figure S2) populations using a FACS Aria III. Genomic DNA for both populations and 5 replicates was isolated with phenol-extraction using PhaseLock tubes, followed by ethanol precipitation. For each sample, DNA from at least 10^6 cells was used as template in multiple parallel 50-μl PCR reactions, each containing 1 μg template, 1× AmpliTaq Gold buffer, 0.2 mM of each dNTP, 2 mM MgCl2, 0.3 μM of each primer and 1.25 U AmpliTaq Gold Polymerase (Life Technologies). In a first round of PCRs, random barcodes and sample barcodes were added to the shRNA sequences using the following cycling parameters: 95°C for 10 min; 28 cycles of (95°C for 30 s, 54°C for 45 s and 72°C for 60 s); 72°C for 7 min and primers MM2P51_for and MM2P71_rev (Supplementary Table S3). PCR products were combined for each sample, purified from a 1% agarose gel and 20 ng per sample were transferred to a second round of PCR, using similar cycling parameters as for PCR1, but with only 10 ng template per reaction, 6 cycles of amplification and primers MM2P52_for and MM2P72_rev_N708 (Supplementary Table S3). In the second PCR, standard Illumina P7 adaptors and the Illumina N708 index were added to the sequences (total product length = 428 bp). All primers used for the library preparation are listed in […]. The final libraries were cleaned up from a 1% agarose gel, pooled and analysed on an Illumina HiSeq 3000 deep sequencer (150 bp read length including the 22 nucleotides of the guide strand), using standard Illumina primers. Sequence processing was performed using a public Galaxy server (www.usegalaxy.eu). All primary screen data are provided in Supplementary Data Table S1. For each shRNA, the number of matching reads was normalized to the total number of library-specific reads per lane and imported into Microsoft Excel for further analysis. Completely depleted shRNAs (0 reads at T0) obtained a fold depletion value of 1 × 10^−3. The average enrichment score for each individual shRNA was calculated by dividing the geometric mean of the normalized reads of the mCherry+ population by the respective normalized reads mCherry– populations (mCherry+/mCherry–) across five replicates. The gene score was derived by summarizing the average enrichment score of all shRNAs per gene. P-values are based on a Poisson distribution of each shRNA in each individual replicate followed by the combination of all P-values across all replicates using Fisher′s method (cumulative χ^2). χ^2 is a chi-squared distribution with 2k degrees of freedom, where k is the number of tests being combined. This fact was used to determine the P-value for χ^2 followed by a Bonferroni correction for multiple comparison to obtain a P-value for each investigated gene in the library."}, "EZH2": {"test_system": "EZH2", "experiment": "Global H3K27me3 signal after EZH2 inhibition", "assay_type": "cell-based", "details": "EZH2-specific inhibitor; Supplementary Figure S6C"}}}
{"compound": "c1ccc([C@@H]2C[C@H]2NC2CCNCC2)cc1", "note": "[GSK-LSD1]", "values": [{"measurement": "R-loops after GSK-LSD1 treatment", "setting": "[1]; 50 μM GSK-LSD1, 3 days, synP element and representative endogenous regions", "result": "substantial increase in R-loops"}, {"measurement": "effect of inhibitor on rTetR-LSD1 activity at synP (mCherry silencing)", "setting": "[2]", "result": "the activity of rTetR-LSD1 at the synP element is dependent on the catalytic activity of LSD1 and HDACs"}]}
{"compound": "CC(/C=C/C(=O)NO)=C\\[C@@H](C)C(=O)c1ccc(N(C)C)cc1", "note": "[Trichostatin A (TSA), Trichostatin A]", "values": [{"measurement": "effect of inhibitor on rTetR-LSD1 activity at synP (mCherry silencing)", "setting": "[2]", "result": "the activity of rTetR-LSD1 at the synP element is dependent on the catalytic activity of LSD1 and HDACs"}]}
{"compound": "Kdm4b.2934: library shRNA, guide TTCTTGGTGATGACGATCTGGC", "values": [{"measurement": "sequencing reads neg2", "setting": "[3]", "result": 0.001}, {"measurement": "sequencing reads neg3", "setting": "[3]", "result": 0}, {"measurement": "sequencing reads neg4", "setting": "[3]", "result": 0}, {"measurement": "sequencing reads neg5", "setting": "[3]", "result": 14}, {"measurement": "sequencing reads pos1", "setting": "[3]", "result": 14}, {"measurement": "sequencing reads pos2", "setting": "[3]", "result": 426}, {"measurement": "sequencing reads pos3", "setting": "[3]", "result": 0}, {"measurement": "sequencing reads pos4", "setting": "[3]", "result": 1}, {"measurement": "sequencing reads pos5", "setting": "[3]", "result": 159}]}
{"compound": "Homez.5313: library shRNA, guide TAAAACAGTAGTTCCTAGCCTT", "values": [{"measurement": "sequencing reads neg2", "setting": "[3]", "result": 0.001}, {"measurement": "sequencing reads neg3", "setting": "[3]", "result": 22}, {"measurement": "sequencing reads neg4", "setting": "[3]", "result": 0}, {"measurement": "sequencing reads neg5", "setting": "[3]", "result": 4}, {"measurement": "sequencing reads pos1", "setting": "[3]", "result": 130}, {"measurement": "sequencing reads pos2", "setting": "[3]", "result": 19}, {"measurement": "sequencing reads pos3", "setting": "[3]", "result": 22}, {"measurement": "sequencing reads pos4", "setting": "[3]", "result": 4}, {"measurement": "sequencing reads pos5", "setting": "[3]", "result": 48}]}
{"compound": "CCCc1cc(C)[nH]c(=O)c1CNC(=O)c1cc(-c2ccnc(N3CCN(C)CC3)c2)cc2c1cnn2C(C)C", "note": "[GSK343]", "values": [{"measurement": "R-loop occupancy after GSK343 treatment", "setting": "[1]; 5 μM GSK343, 3 days, synP element and representative endogenous loci", "result": "increased R-loop occupancy"}, {"measurement": "H3K27me3 signal after GSK343 treatment", "setting": "EZH2", "result": "global reduction of H3K27me3 signal"}, {"measurement": "LSD1 silencing capacity at the synP element after GSK343 treatment", "setting": "[2]; 5 μM GSK343 vs DMSO during rTetR-LSD1 recruitment via DOX, time course", "result": "diminished LSD1 silencing capacity at the synP element"}]}
